Data as given in ChEMBL document CHEMBL4665642, “Anticancer profile of newly synthesized BRAF inhibitors possess 5-(pyrimidin-4-yl)imidazo[2,1-b]thiazole scaffold” (Bioorg Med Chem, 2019).

How the values were obtained:
Type in all cases: functional
Conditions in all cases: read-out: Activity
HCT-29 = test: Cytotoxicity against human […] cells assessed as cell viability at 10 uM incubated for 48 hrs by sulforhodamine B assay relative to control
HOP-92 = test: Cytotoxicity against human HOP-92 cells assessed as cell viability at 10 uM incubated for 48 hrs by sulforhodamine B assay relative to control
NCI-H460 = test: Cytotoxicity against human NCI-H460 cells assessed as cell viability at 10 uM incubated for 48 hrs by sulforhodamine B assay relative to control
SNB-19 = test: Cytotoxicity against human SNB-19 cells assessed as cell viability at 10 uM incubated for 48 hrs by sulforhodamine B assay relative to control
M14 = test: Cytotoxicity against human M14 cells assessed as cell viability at 10 uM incubated for 48 hrs by sulforhodamine B assay relative to control
T47D = test: Cytotoxicity against human T47D cells assessed as cell viability at 10 uM incubated for 48 hrs by sulforhodamine B assay relative to control
RPMI-8226 = test: Cytotoxicity against human RPMI-8226 cells assessed as cell viability at 10 uM incubated for 48 hrs by sulforhodamine B assay relative to control
TK-10 = test: Cytotoxicity against human TK-10 cells assessed as cell viability at 10 uM incubated for 48 hrs by sulforhodamine B assay relative to control
IGROV-1 = test: Cytotoxicity against human IGROV-1 cells assessed as cell viability at 10 uM incubated for 48 hrs by sulforhodamine B assay relative to control
HL-60(TB) = test: Cytotoxicity against human HL-60(TB) cells assessed as cell viability at 10 uM incubated for 48 hrs by sulforhodamine B assay relative to control
OVCAR-5 = test: Cytotoxicity against human OVCAR-5 cells assessed as cell viability at 10 uM incubated for 48 hrs by sulforhodamine B assay relative to control
Hs-578T = test: Cytotoxicity against human HS-578T cells assessed as cell viability at 10 uM incubated for 48 hrs by sulforhodamine B assay relative to control
OVCAR-3 = test: Cytotoxicity against human OVCAR-3 cells assessed as cell viability at 10 uM incubated for 48 hrs by sulforhodamine B assay relative to control
KM12 = test: Cytotoxicity against human KM12 cells assessed as cell viability at 10 uM incubated for 48 hrs by sulforhodamine B assay relative to control
OVCAR-4 = test: Cytotoxicity against human OVCAR-4 cells assessed as cell viability at 10 uM incubated for 48 hrs by sulforhodamine B assay relative to control
NCI/ADR-RES = test: Cytotoxicity against human NCI/ADR-RES cells assessed as cell viability at 10 uM incubated for 48 hrs by sulforhodamine B assay relative to control
COLO 205 = test: Cytotoxicity against human COLO 205 cells assessed as cell viability at 10 uM incubated for 48 hrs by sulforhodamine B assay relative to control
UO-31 = test: Cytotoxicity against human UO-31 cells assessed as cell viability at 10 uM incubated for 48 hrs by sulforhodamine B assay relative to control
RXF 393 = test: Cytotoxicity against human RXF 393 cells assessed as cell viability at 10 uM incubated for 48 hrs by sulforhodamine B assay relative to control
SF-539 = test: Cytotoxicity against human SF-539 cells assessed as cell viability at 10 uM incubated for 48 hrs by sulforhodamine B assay relative to control
A549 = test: Cytotoxicity against human A549 cells assessed as cell viability at 10 uM incubated for 48 hrs by sulforhodamine B assay relative to control
SF-268 = test: Cytotoxicity against human SF-268 cells assessed as cell viability at 10 uM incubated for 48 hrs by sulforhodamine B assay relative to control
SK-OV-3 = test: Cytotoxicity against human SK-OV-3 cells assessed as cell viability at 10 uM incubated for 48 hrs by sulforhodamine B assay relative to control
DU-145 = test: Cytotoxicity against human DU-145 cells assessed as cell viability at 10 uM incubated for 48 hrs by sulforhodamine B assay relative to control
K562 = test: Cytotoxicity against human K562 cells assessed as cell viability at 10 uM incubated for 48 hrs by sulforhodamine B assay relative to control
HOP-62 = test: Cytotoxicity against human HOP-62 cells assessed as cell viability at 10 uM incubated for 48 hrs by sulforhodamine B assay relative to control
MCF7 = test: Cytotoxicity against human MCF7 cells assessed as cell viability at 10 uM incubated for 48 hrs by sulforhodamine B assay relative to control
SK-MEL-5 = test: Cytotoxicity against human SK-MEL-5 cells assessed as cell viability at 10 uM incubated for 48 hrs by sulforhodamine B assay relative to control
Malme-3M = test: Cytotoxicity against human Malme-3M cells assessed as cell viability at 10 uM incubated for 48 hrs by sulforhodamine B assay relative to control
HCT-15 = test: Cytotoxicity against human HCT-15 cells assessed as cell viability at 10 uM incubated for 48 hrs by sulforhodamine B assay relative to control
MDA-MB-231 = test: Cytotoxicity against human MDA-MB-231 cells assessed as cell viability at 10 uM incubated for 48 hrs by sulforhodamine B assay relative to control
PC-3 = test: Cytotoxicity against human PC-3 cells assessed as cell viability at 10 uM incubated for 48 hrs by sulforhodamine B assay relative to control
UACC-62 = test: Cytotoxicity against human UACC-62 cells assessed as cell viability at 10 uM incubated for 48 hrs by sulforhodamine B assay relative to control
SK-MEL-28 = test: Cytotoxicity against human SK-MEL-28 cells assessed as cell viability at 10 uM incubated for 48 hrs by sulforhodamine B assay relative to control
SN12C = test: Cytotoxicity against human SN12C cells assessed as cell viability at 10 uM incubated for 48 hrs by sulforhodamine B assay relative to control
786-0 = test: Cytotoxicity against human 786-0 cells assessed as cell viability at 10 uM incubated for 48 hrs by sulforhodamine B assay relative to control
SW-620 = test: Cytotoxicity against human SW-620 cells assessed as cell viability at 10 uM incubated for 48 hrs by sulforhodamine B assay relative to control
NCI-H226 = test: Cytotoxicity against human NCI-H226 cells assessed as cell viability at 10 uM incubated for 48 hrs by sulforhodamine B assay relative to control
SNB-75 = test: Cytotoxicity against human SNB-75 cells assessed as cell viability at 10 uM incubated for 48 hrs by sulforhodamine B assay relative to control
MOLT-4 = test: Cytotoxicity against human MOLT-4 cells assessed as cell viability at 10 uM incubated for 48 hrs by sulforhodamine B assay relative to control
BT-549 = test: Cytotoxicity against human BT-549 cells assessed as cell viability at 10 uM incubated for 48 hrs by sulforhodamine B assay relative to control

O=C(NCCNc1nccc(-c2c(-c3cccc(F)c3)nc3sccn23)n1)C1CCCCC1
viability at 10 µM (HCT-29): 43.6% | viability at 10 µM (HOP-92): 135% | viability at 10 µM (NCI-H460): 91.6% | viability at 10 µM (SNB-19): 96% | viability at 10 µM (M14): 73.6% | viability at 10 µM (T47D): 30.2% | viability at 10 µM (RPMI-8226): 81.6% | viability at 10 µM (TK-10): 88.6% | viability at 10 µM (IGROV-1): 45.1% | viability at 10 µM (HL-60(TB)): 122% | viability at 10 µM (OVCAR-5): 141% | viability at 10 µM (Hs-578T): 91.8% | viability at 10 µM (OVCAR-3): 76.3% | viability at 10 µM (KM12): 81.6% | viability at 10 µM (OVCAR-4): 71.8% | viability at 10 µM (NCI/ADR-RES): 66.9% | viability at 10 µM (COLO 205): 53.5% | viability at 10 µM (UO-31): 40.3% | viability at 10 µM (RXF 393): 78.2% | viability at 10 µM (SF-539): 84.9% | viability at 10 µM (A549): 78.8% | viability at 10 µM (SF-268): 77.3% | viability at 10 µM (SK-OV-3): 50.1% | viability at 10 µM (DU-145): 81.6% | viability at 10 µM (K562): 74.2% | viability at 10 µM (HOP-62): 109% | viability at 10 µM (MCF7): 82% | viability at 10 µM (SK-MEL-5): 59.6% | viability at 10 µM (Malme-3M): 130% | viability at 10 µM (HCT-15): 61% | viability at 10 µM (MDA-MB-231): 104% | viability at 10 µM (PC-3): 75.2% | viability at 10 µM (UACC-62): 58.4% | viability at 10 µM (SK-MEL-28): 106% | viability at 10 µM (SN12C): 67.5% | viability at 10 µM (786-0): 69.1% | viability at 10 µM (SW-620): 114% | viability at 10 µM (NCI-H226): 60.9% | viability at 10 µM (SNB-75): 88.6% | viability at 10 µM (MOLT-4): 55.4% | viability at 10 µM (BT-549): 93.9%

O=S(=O)(NCCCNc1nccc(-c2c(-c3cccc(F)c3)nc3sccn23)n1)c1ccc(O)cc1
viability at 10 µM (HCT-29): 41.8% | viability at 10 µM (HOP-92): 98.1% | viability at 10 µM (NCI-H460): 52.9% | viability at 10 µM (SNB-19): 77.7% | viability at 10 µM (M14): 70.3% | viability at 10 µM (T47D): 48.8% | viability at 10 µM (RPMI-8226): 73.6% | viability at 10 µM (TK-10): 87.6% | viability at 10 µM (IGROV-1): 32.6% | viability at 10 µM (HL-60(TB)): 107% | viability at 10 µM (OVCAR-5): 113% | viability at 10 µM (Hs-578T): 85.6% | viability at 10 µM (OVCAR-3): 80.5% | viability at 10 µM (KM12): 27.4% | viability at 10 µM (OVCAR-4): 82.4% | viability at 10 µM (NCI/ADR-RES): 79.1% | viability at 10 µM (COLO 205): 48.4% | viability at 10 µM (UO-31): 31.3% | viability at 10 µM (RXF 393): 84% | viability at 10 µM (SF-539): 99.3% | viability at 10 µM (A549): 47.1% | viability at 10 µM (SF-268): 62.8% | viability at 10 µM (SK-OV-3): 86.4% | viability at 10 µM (DU-145): 77.4% | viability at 10 µM (K562): 55.1% | viability at 10 µM (HOP-62): 89% | viability at 10 µM (MCF7): 32.2% | viability at 10 µM (SK-MEL-5): 57% | viability at 10 µM (Malme-3M): 107% | viability at 10 µM (HCT-15): 43.5% | viability at 10 µM (MDA-MB-231): 83.9% | viability at 10 µM (PC-3): 75% | viability at 10 µM (UACC-62): 60.1% | viability at 10 µM (SK-MEL-28): 95.9% | viability at 10 µM (SN12C): 58.7% | viability at 10 µM (786-0): 65.5% | viability at 10 µM (SW-620): 82.7% | viability at 10 µM (NCI-H226): 64.3% | viability at 10 µM (SNB-75): 77.8% | viability at 10 µM (MOLT-4): 55.5% | viability at 10 µM (BT-549): 82.5%
